Results published in PMC8839746, “Discovery and Characterization of a Cryptic Secondary Binding Site in the Molecular Chaperone HSP70” (Molecules, 2022).
≈ marks a conversion by molar mass, not a printed value. Read-outs that look alike come from different tables or passages of the source.

What was measured:
[1] = molecular target: T1, HSC70-NBD (Homo sapiens, UniProt P11142); test: SPR binding to wild-type HSC70-NBD
T1 construct: made in house
Procedure: (§1) The HSC70-NBD variants used in SPR were produced and purified as previously described. All surface plasmon resonance (SPR) experiments were carried out on a Biacore T100 enhanced to T200 sensitivity (GE Life Sciences, Amersham, UK), and amine coupling chemistry was used to immobilize the proteins on a research grade CM5 sensor chip. The running buffer was phosphate-buffered saline (10-mM NaHPO4-NaH2PO4, pH 7.4, 2.7-mM KCl and 137-mM NaCl), and the chip’s surface was activated for 10 min using a 1:1 mixture of 100-mM N-hydroxysuccinimide and 400-mM 1-ethyl-3-(3-dimethylaminopropyl)-carbodiimide. Wild-type HSC70-NBD and the S275W mutant proteins were injected for 10 min at a concentration of 2 μM in a 10-mM sodium acetate buffer, pH 5.0 with 100-μM ADP as protection for the active site lysines. Finally, the surface was blocked via an injection of 1 M ethanolamine, pH 8.5 for 7 min. The flow rate was maintained at 10 μL/min for all the above procedures. On average, ~12,000 response units (RU) of the wild-type and the mutant proteins were immobilized on the chip. Flow cell one was left unmodified as the reference surface. Following protein immobilization, the running buffer was changed to phosphate-buffered saline containing 0.05% Tween20 (v/v) and 5% DMSO.
(§2) To determine binding constants (KD) for the compounds, all liquid handling was carried out using an ECHO 550 acoustic liquid dispenser (Labcyte, Dublin, Ireland), and compounds were added to 384-well polypropylene V-bottomed plates (Greiner, Stonehouse, UK), which were used as sample plates for the SPR experiments. Fresh 100-mM DMSO stocks of each compound were prepared and used to generate eight-point concentration responses ranging from 25 μM to 1000 μM or from 6.25 μM to 500 μM. For adenosine, the concentration range was 50 μM–2000 μM from a 200-mM stock in DMSO, and for VER155008, a stock solution of 0.25 mM in DMSO was prepared with a concentration range of 0.0625–2.5 μM. The buffer mix was made compatible with the Biacore running buffer, and the experiments were performed at a flow rate of 30 μL/min, a sample injection time of 60 s and a dissociation time of 200 s. The CM5 surface was not regenerated between sample injections. Binding constants (KD) were calculated from the DMSO-corrected and background-normalized binding curves generated from the sensorgrams under equilibrium conditions using the 1:1 binding model in Biacore software version 2 (GE Life Sciences, Amersham, UK).

[2] = molecular target: T2, S275W HSC70-NBD (Homo sapiens, UniProt P11142, S275W); test: SPR binding to S275W mutant HSC70-NBD
T2 construct: made in house
T2 sequence (P11142 2-386 S275W limits assumed): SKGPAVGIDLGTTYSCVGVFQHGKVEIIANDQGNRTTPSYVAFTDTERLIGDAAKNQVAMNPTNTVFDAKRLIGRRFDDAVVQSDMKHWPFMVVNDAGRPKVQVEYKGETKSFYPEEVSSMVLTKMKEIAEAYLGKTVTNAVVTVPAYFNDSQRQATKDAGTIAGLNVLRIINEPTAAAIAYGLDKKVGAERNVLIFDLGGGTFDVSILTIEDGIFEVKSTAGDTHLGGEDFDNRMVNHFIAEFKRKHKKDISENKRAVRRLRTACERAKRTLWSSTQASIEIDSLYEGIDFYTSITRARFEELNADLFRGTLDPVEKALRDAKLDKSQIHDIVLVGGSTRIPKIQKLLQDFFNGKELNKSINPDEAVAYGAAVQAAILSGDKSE
Procedure: as §1, §2

[3] = tested on: T3, HSP72-NBD; test: CPMG relaxation-edited ligand-observed 1H NMR binding and ATP competition; parameters: species or system human
T3 construct: GST (glutathione-S-transferase), PreScission site (N, cleaved yes); made in house; host or cells: BL21-AI E. coli
Procedure: (§3) To confirm the binding of compounds to HSP72-NBD, a series of CPMG and WaterLOGSY experiments were performed. Compounds were assayed at 200 μM in the presence or absence of 10-μM HSP72-NBD. […] of ATP were also included in the competition experiments. The total assay volume was 200 μL, and the experiments were performed in 3-mm NMR tubes. The buffer was 25-mM Tris, pH 7.5, 50-mM NaCl, 10% D2O and 100 μM of DTT in deionized water. NMR experiments were conducted at a ^1H frequency of 600 MHz using a Bruker Avance 600 spectrometer (Bruker, Bilerica, MA, USA) equipped with a 5-mm TCI Cryo-probe. All data were acquired and processed using Topspin (Bruker, Bilerica, MA, USA) and MNova (Mestrelab Research SL, Santiago de Compostela, Spain). The relaxation-edited 1H-NMR spectrum was acquired at 298 K using the CPMG sequence with a spin-lock time of 600 ms. The water signal was suppressed using pre-saturation during the relaxation delay (2 s) and by using the Watergate sequence subsequent to the CPMG sequence. For each spectrum, 64 transients were acquired.

[4] = molecular target: HSP70; parameters: method as in PMID 19256508; settings: cited from earlier work
[5] = molecular target: T2, S275W HSC70-NBD; parameters: method as in PMID 27708405; settings: S275W mutation; cited from earlier work
[6] = tested on: T3, HSP72-NBD; test: waterLOGSY ligand-observed NMR binding; parameters: species or system human; settings: ligand 200 μM, HSP72-NBD 10 μM
Procedure: as §3

[7] = Aggregation check in LO-NMR experiments; type: physicochemical; settings: tested concentration 200 µM
Procedure: as §3

[8] = Kinetic solubility in pH 7.4 phosphate buffer by quantitative NMR; type: physicochemical; settings: phosphate-buffered saline with 5% DMSO, aqueous with cosolvent or surfactant or cyclodextrin, kinetic from dmso stock, NMR method
Procedure: Nine microliters of a 10-mM DMSO solution of 1 was pipetted into one well of a 384-deep well plate (Greiner, part-no. 781270). one hundred and seventy-one microliters of aqueous buffer (137-mM NaCl, 2.7-mM KCl and 10-mM phosphate buffer solution (pH 7.4)) were pipetted into the same well and mixed 3 times by pipette to give a 500-µM solution of 1 with 5% DMSO. The plate was centrifuged (1000 rpm for 1 min, Eppendorf 5810C) and then sealed and incubated at room temperature for 20 h without shaking. The plate was centrifuged (1000 rpm for 1 min, Eppendorf 5810R), and 165 µL of the supernatant was transferred to a 3-mm NMR tube (Bruker, Part No. Z112272) using a liquid handler SamplePro Tube SJ S (Bruker, Bilerica, MA, USA)). The concentration of 1 was measured by quantitative ^1H-NMR using a single external standard (200-µM caffeine (Sigma C1778, Merck Life Science UK, Gillingham, UK)) in PBS (pH 7.4) with 1% DMSO-d6). NMR data was collected on a Bruker Avance Neo 600 spectrometer equipped with a 5-mm TCI Cryo-probe. The ^1H spectrum was referenced to the internal deuterated solvent. The operating frequency for ^1H was 600 MHz. […] The quantitative ^1H-NMR spectrum was acquired using a Bruker standard 1D lc1pngppsf2 pulse sequence with 32 scans. […] The quantitative 1H-NMR data analysis was carried out in Mnova 14.1 (Mestrelab Research SL, Santiago de Compostela, Spain).

[9] = mean (±SD), n = 3 unless marked n = 2, read-out: HSC70-NBD SPR KD
[10] = n = 2 determinations unless marked single, read-out: HSC70-NBD S275W SPR KD

T1 sequence (P11142 2-386 limits assumed): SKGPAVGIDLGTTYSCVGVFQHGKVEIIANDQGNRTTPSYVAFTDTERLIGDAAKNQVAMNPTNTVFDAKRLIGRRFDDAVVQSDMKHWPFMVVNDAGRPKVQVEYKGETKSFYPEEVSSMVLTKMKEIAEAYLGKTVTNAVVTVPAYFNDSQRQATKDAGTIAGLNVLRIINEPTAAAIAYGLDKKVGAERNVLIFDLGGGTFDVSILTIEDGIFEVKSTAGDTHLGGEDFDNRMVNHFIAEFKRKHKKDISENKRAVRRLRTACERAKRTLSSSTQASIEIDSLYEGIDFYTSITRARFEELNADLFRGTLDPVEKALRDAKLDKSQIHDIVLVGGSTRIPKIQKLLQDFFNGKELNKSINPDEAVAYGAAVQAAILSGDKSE

COc1cccc(-c2cc(CNC(=O)c3c(C)oc4c3C(=O)CCC4)on2)c1 [Compound 8]
Kd [1, 9]: 99 µM | Ligand Efficiency ([1]; vHTS hits, HSC70-NBD): 0.2 kcal/mol per heavy atom | Kd [2, 10]: 86 µM

CC(C)c1csc(CCNC(=O)c2cccc(-c3cncc(O)n3)c2)n1 [Compound 4]
Kd [1, 9]: 406 µM | Ligand Efficiency ([1]; vHTS hits, HSC70-NBD): 0.18 kcal/mol per heavy atom | Kd [2, 10]: 385 µM

CC(C)(O)C#Cc1cccc(C(=O)NCc2ccc(-n3cncn3)cc2)c1 [Compound 5]
Kd [1, 9]: 295 µM | Ligand Efficiency ([1]; vHTS hits, HSC70-NBD): 0.19 kcal/mol per heavy atom | Kd [2, 10]: 176 µM

CNc1nc(C)cc(-c2cccc(C(=O)NCCc3ccc(C)o3)c2)n1 [Compound 7]
Kd [1, 9]: 134 µM | Ligand Efficiency ([1]; vHTS hits, HSC70-NBD): 0.21 kcal/mol per heavy atom | Kd [2, 10]: 159 µM

NC(=O)N1CCN(c2nc(-c3ccc(C#CCN4CCOCC4)cc3)cs2)CC1 [Compound 3, 4-[4-[4-(3-Morpholinoprop-1-ynyl)phenyl]thiazol-2-yl]piperazine-1-carboxamide]
Change in NMR signal intensity for 3, Peak a ([3]; 3 + HSP72-NBD): 41% | Change in NMR signal intensity for 3, Peak b ([3]; 3 + HSP72-NBD): 36% | Change in NMR signal intensity for 3, Peak c ([3]; 3 + HSP72-NBD): 31% | Change in NMR signal intensity for 3, Peak a ([3]; 3 + HSP72-NBD + ATP): 5% | Change in NMR signal intensity for 3, Peak b ([3]; 3 + HSP72-NBD + ATP): 22% | Change in NMR signal intensity for 3, Peak c ([3]; 3 + HSP72-NBD + ATP): 7% | Kd ([1]; SPR, WT HSC70-NBD, single determination, read-out: KD HSC70-NBD): 388 µM | Ligand Efficiency ([1]; calculated for binding to WT HSC70-NBD): 0.16 kcal/mol per heavy atom | Kd ([2]; SPR, single determination, read-out: KD S275W HSC70): 352 µM

N#Cc1ccc(COC[C@H]2O[C@@H](n3c(NCc4ccc(Cl)c(Cl)c4)nc4c(N)ncnc43)[C@H](O)[C@@H]2O)cc1 [VER-155008]
Kd [4]: 0.5 µM

Nc1ncnc2c1ncn2[C@@H]1O[C@H](COP(=O)(O)OP(=O)(O)O)[C@@H](O)[C@H]1O [ADP]
Kd [4]: 0.5 µM

Nc1ncnc2c1ncn2[C@@H]1O[C@H](CO)[C@@H](O)[C@H]1O [adenosine]
Binding of adenosine to S275W mutant by SPR [5]: abolished

NC(=O)N1CCN(c2nc(-c3ccccc3)cs2)CC1 [Compound 1, 4-(4-Phenylthiazol-2-yl)piperazine-1-carboxamide]
melting point: 131 °C (dec.) | waterLOGSY NOE sign inversion on addition of HSP72-NBD [6]: binding to the protein | Aggregation in LO-NMR experiments [7]: did not show aggregation | Reduction in 1H NMR peak intensity relative to 1 alone, Peak a ([3]; 1 (200 μM) + HSP72-NBD (10 μM), thiazole C5 proton): 58% | Reduction in 1H NMR peak intensity relative to 1 alone, Peak b ([3]; 1 + HSP72-NBD): 7% | Reduction in 1H NMR peak intensity relative to 1 alone, Peak c ([3]; 1 + HSP72-NBD): 14% | Reduction in 1H NMR peak intensity relative to 1 alone, Peak d ([3]; 1 + HSP72-NBD): 13% | Reduction in 1H NMR peak intensity relative to 1 alone, Peak a ([3]; 1 + HSP72-NBD + ATP): 8% | Reduction in 1H NMR peak intensity relative to 1 alone, Peak b ([3]; 1 + HSP72-NBD + ATP): 12% | Reduction in 1H NMR peak intensity relative to 1 alone, Peak c ([3]; 1 + HSP72-NBD + ATP): 2% | Reduction in 1H NMR peak intensity relative to 1 alone, Peak d ([3]; 1 + HSP72-NBD + ATP): 2% | SPR binding behaviour (Langmuir isotherm) ([1]; concentration-response SPR, HSC70-NBD): non-saturating behavior | solubility kinetic at 20 h [8]: 291 µM (≈ 83.9 µg/mL)

c1ccc(-c2ccc(Cn3nnnc3N3CCCC(c4ncc[nH]4)C3)cc2)cc1 (stereo not shown) [Compound 6]
Kd [1, 9]: 13 µM | Ligand Efficiency ([1]; vHTS hits, HSC70-NBD): 0.24 kcal/mol per heavy atom | Kd [2, 10]: 12 µM
